The results in this text go back to BindingDB's records for PubMed 33822624 (Ocean University of China, 2021).

The IC50 is the point on the concentration scale where inhibition reaches its midpoint.

In this experiment the target is TCF7L2 (Homo sapiens). Kind of experiment: Inhibition of beta-catenin/Tcf4 (unknown origin) in human SW480 cells assessed as reduction in cyclin D1 level qRT-PCR analysis.

On to `CC[C@H](C)[C@H](NC(=O)[C@H]1Cc2cn(nn2)CCCC[C@H](NC(=O)[C@H](CC(C)C)NC(=O)[C@H](CO)NC(=O)[C@H](CCCNC(=N)N)NC(=O)[C@H](CCC(=O)O)NC(=O)[C@H](CCCNC(=N)N)NC(=O)[C@H](Cc2cnc[nH]2)NC(=O)[C@H]2Cc3cn(nn3)CCCC[C@H](NC(=O)[C@H](CO)NC(=O)[C@H](CC(C)C)NC(C)=O)C(=O)N[C@@H](CCC(=O)O)C(=O)N[C@@H](CCC(N)=O)C(=O)N[C@@H](CC(C)C)C(=O)N2)C(=O)N[C@@H]([C@@H](C)O)C(=O)N[C@@H](CC(C)C)C(=O)N[C@@H](CCCNC(=N)N)C(=O)N1)C(=O)N[C@@H](CCC(N)=O)C(=O)N[C@@H](CCCNC(=N)N)C(=O)N[C@@H](CC(C)C)C(=O)N[C@@H](CC(C)C)C(=O)N[C@@H](Cc1ccccc1)C(N)=O`, for which the half-maximal inhibitory concentration (IC50) amounted to 4.2 µM.
